Legend:
Type in all cases: in vivo
[1] = system: Alopecurus myosuroides (ALOMY); test: Pre-emergence biological efficacy, glasshouse pot test; conditions: 312 h, 1,000 g/ha, evaluated after 13 days, 100=total damage, 0=no damage, read-out: Percentage damage caused to weed species, pre-emergence, ALOMY
Summary of the method: (§1)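 Plants treated pre-emergence received 1000 or 250 g/ha in an acetone/water (50:50) vehicle containing 0.5% Tween 20 and were kept in a glasshouse at 24/16 °C with 14 h light. Injury was rated on day 13, where 100 meant total damage.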

[2] = system: Amaranthus retroflexus (AMARE); test: as above; conditions: 312 h, 1,000 g/ha, evaluated after 13 days, 100=total damage, 0=no damage, read-out: Percentage damage caused to weed species, pre-emergence, AMARE
Summary of the method: as §1

[3] = system: Echinochloa crus-galli (ECHCG); test: as above; conditions: 312 h, 1,000 g/ha, evaluated after 13 days, 100=total damage, 0=no damage, read-out: Percentage damage caused to weed species, pre-emergence, ECHCG
Summary of the method: as §1

[4] = system: Ipomea hederaceae (IPOHE); test: as above; conditions: Ipomoea hederacea, 312 h, 1,000 g/ha, evaluated after 13 days, 100=total damage, 0=no damage, read-out: Percentage damage caused to weed species, pre-emergence, IPOHE
Summary of the method: as §1

Setaria faberi (SETFA) [5] = test: as above; conditions: 312 h, 1,000 g/ha, evaluated after 13 days, 100=total damage, 0=no damage, read-out: Percentage damage caused to weed species, pre-emergence, SETFA
Summary of the method: as §1

Solanum nigrum (SOLNI) [6] = test: as above; conditions: 312 h, 1,000 g/ha, evaluated after 13 days, 100=total damage, 0=no damage, read-out: Percentage damage caused to weed species, pre-emergence, SOLNI
Summary of the method: as §1

[7] = system: Alopecurus myosuroides (ALOMY); test: Post-emergence biological efficacy, glasshouse pot test; conditions: 312 h, 1,000 g/ha, evaluated after 13 days, 100=total damage, 0=no damage, read-out: Percentage damage caused to weed species, post-emergence, ALOMY
Summary of the method: (§2)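 Scores on a 0 (undamaged) to 100 (dead) scale reflect injury 13 days post-treatment of 8-day-old potted plants sprayed at 1000 or 250 g/ha.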

[8] = system: Amaranthus retroflexus (AMARE); test: as above; conditions: 312 h, 1,000 g/ha, evaluated after 13 days, 100=total damage, 0=no damage, read-out: Percentage damage caused to weed species, post-emergence, AMARE
Summary of the method: as §2

[9] = system: Echinochloa crus-galli (ECHCG); test: as above; conditions: 312 h, 1,000 g/ha, evaluated after 13 days, 100=total damage, 0=no damage, read-out: Percentage damage caused to weed species, post-emergence, ECHCG
Summary of the method: as §2

[10] = system: Ipomea hederaceae (IPOHE); test: as above; conditions: Ipomoea hederacea, 312 h, 1,000 g/ha, evaluated after 13 days, 100=total damage, 0=no damage, read-out: Percentage damage caused to weed species, post-emergence, IPOHE
Summary of the method: as §2

Setaria faberi (SETFA) [11] = test: as above; conditions: 312 h, 1,000 g/ha, evaluated after 13 days, 100=total damage, 0=no damage, read-out: Percentage damage caused to weed species, post-emergence, SETFA
Summary of the method: as §2

Solanum nigrum (SOLNI) [12] = test: as above; conditions: 312 h, 1,000 g/ha, evaluated after 13 days, 100=total damage, 0=no damage, read-out: Percentage damage caused to weed species, post-emergence, SOLNI
Summary of the method: as §2

Row | SMILES | pest or weed control at 1000 g/ha [1] [%] | pest or weed control at 1000 g/ha [2] [%] | pest or weed control at 1000 g/ha [3] [%] | pest or weed control at 1000 g/ha [4] [%] | pest or weed control at 1000 g/ha (Setaria faberi (SETFA) [5]) [%] | pest or weed control at 1000 g/ha (Solanum nigrum (SOLNI) [6]) [%] | pest or weed control at 1000 g/ha [7] [%] | pest or weed control at 1000 g/ha [8] [%] | pest or weed control at 1000 g/ha [9] [%] | pest or weed control at 1000 g/ha [10] [%] | pest or weed control at 1000 g/ha (Setaria faberi (SETFA) [11]) [%] | pest or weed control at 1000 g/ha (Solanum nigrum (SOLNI) [12]) [%]
1 | COC(=O)c1nc(Cl)cc(NCc2cc(C)nn2C)c1Cl [Compound 77-2, 3,6-Dichloro-4-[(1,3-dimethylpyrazol-5-ylmethyl)-amino]-pyridine-2-carboxylic acid methyl ester] | 60 | 100 | 20 | 90 | 70 | 100 | 50 | 100 | 30 | 80 | 80 | 100
2 | COC(=O)c1nc(Cl)cc(NCc2cccnc2)c1Cl [Compound 78-2, 3,6-Dichloro-4-(pyridin-3-ylmethylamino)-pyridine-2-carboxylic acid methyl ester] | 40 | 100 | 20 | 90 | 50 | 100 | 20 | 100 | 20 | 70 | 50 | 100
3 | COC(=O)c1nc(-c2ccc(Cl)c(OC)c2F)cc(NCc2ccc(OC)cc2OC)c1Cl [Compound 22-164, 3-Chloro-6-(4-chloro-2-fluoro-3-methoxy-phenyl)-4-[(2,4-dimethoxyphenyl-methyl)-amino]-pyridine-2-carboxylic acid methyl ester] | 20 | 80 | 60 | 70 | 10 | 80 | 0 | 100 | 60 | 70 | 60 | 90
4 | C=Cc1c(NCc2ccccc2[N+](=O)[O-])cc(Cl)nc1C(=O)OC [Compound 15-12, 6-Chloro-3-ethenyl-4-[(2-nitrophenylmeth-yl)-amino]-pyridine-2-carboxylic acid methyl ester] | 70 | 100 | 90 | 100 | 80 | 100 | 80 | 100 | 70 | 60 | 100 | 90
5 | COC(=O)c1nc(Cl)cc(NCc2ncccc2C)c1Cl [Compound 33-2, 3,6-Dichloro-4-[(3-methyl-pyridin-2-ylmethyl)-amino] pyridine-2-carboxylic acid methyl ester] | 60 | 100 | 50 | 100 | 80 | 100 | 60 | 100 | 60 | 80 | 70 | 100
6 | COC(=O)c1nc(Cl)c(Cl)c(NCc2ccccc2[N+](=O)[O-])c1Br [Compound 15-41, 3-bromo-5,6-dichloro-4-[(2-nitrophenyl-methyl)-amino]-pyridine-2-carboxylic acid methyl ester] | 20 | 100 | 40 | 100 | 30 | 80 | 10 | 100 | 0 | 80 | 70 | 100
7 | C=Cc1c(NCc2ccco2)cc(Cl)nc1C(=O)OC [Compound 26-12, 6-Chloro-3-ethenyl-4-[(furan-2-ylmethyl)-amino]-pyridine-2-carboxylic acid methyl ester] | 90 | 100 | 90 | 90 | 100 | 100 | 80 | 100 | 80 | 70 | 90 | 100
8 | COC(=O)c1nc(Cl)cc(NCc2ccccc2C(F)(F)F)c1Cl [Compound 74-2, 3,6-Dichloro-4-[(2-trifluoromethyl-phenylmethyl)-amino]-pyridine-2-carboxylic acid methyl ester] | 0 | 90 | 0 | 70 | 10 | 90 | 10 | 100 | 0 | 60 | 0 | 100
9 | COC(=O)c1nc(Cl)cc(NCc2cnc(C)cn2)c1Cl [Compound 81-2, 3,6-Dichloro-4-[(5-methylpyrazin-2-ylmethyl)-amino]-pyridine-2-carboxylic acid methyl ester] | 70 | 100 | 70 | 90 | 70 | 100 | 40 | 100 | 40 | 60 | 80 | 100
10 | COC(=O)c1nc(Cl)cc(NCc2ccccc2)c1Cl [Compound 2-2, 3,6-Dichloro-4-phenylmethyl-amino-pyridine-2-carboxylic acid methyl ester] | 60 | 100 | 30 | 90 | 80 | 100 | 50 | 100 | 60 | 70 | 80 | 100
11 | COC(=O)c1nc(Cl)c(Cl)c(NCc2ncccc2Cl)c1Br [Compound 32-41, 3-Bromo-4-[(3-chloro-pyridin-2-ylmethyl)-amino]-5,6-dichloro-pyridine-2-carboxylic acid methyl ester] | 0 | 90 | 0 | 80 | 0 | 80 | 20 | 90 | 20 | 70 | 60 | 90
